Results: patent EP0719267B1, “SECOND MESSENGER CELL SIGNALING INHIBITORS” (CELL THERAPEUTICS, INC., priority 1993, dated 1994)

Tests used:
Balb/3T3 cells = test: PDGF-induced proliferation of Balb/3T3 cells; format: cell-based, murine
Description: Balb/3T3 cells respond vigorously to PDGF stimulation, and are useful in vitro models for further study of PDGF-induced proliferation. Disregulated PDGF-proliferative response has been linked to a variety of diseases, including, e.g., restenosis, atherosclerosis, fibrosis, and tumor cell angiogenesis. Cells were plated in low serum-containing medium for 24 hours prior to stimulation with various concentrations of inventive compound no. 45. PDGF-BB was added at constant 10 µM concentrations. Tritiated thymidine was added and cells harvested for scintillation counting 24 hours later. Figure 15 illustrates a dose response curve from this assay, including an IC50 value of approximately 0.08 µM, exemplifying inhibitory activity of the tested compound.
In another investigation similar to the Balb/3T3 proliferation assay of Example 32, IC50 and ID50 values for inventive compounds nos. 70, 45, 59 and 58 were determined. LD50 values were determined using a cytotoxicity assay, as in Example 32. In these assays, Balb/3T3 cells, stimulated with PDGF and treated with one of the above inventive compounds in a manner identical to the tritiated thymidine procedure above, were incubated instead with a viable dye BCECF, a fluorescent dye. Fluorescence was measured using a fluorescent plate reader. […] Figure 17 illustrates assay results by comparing […] value against LD50 values for the inventive compounds tested. Most compounds tested were non-cytotoxic yet were significant inhibitors of proliferation.
Inventive compounds nos. 77,7 and 78 were added at various concentrations one hour prior to PDGF stimulation. PDGF-BB was added at a constant 10 µM concentrations along with tritiated thymidine. The cells were allowed to incubate for one day, following addition of PDGF and tritiated thymidine. 24 Hours later, the cells were harvested and counted by liquid scintillation counting. Results for compounds nos.77, 7 and 78 are shown in figures 26A, 26B and 26C, respectively. Background counts were approximately 1% of control levels.
Results obtained for compound no. 50 in the PDGF-induced proliferation of Balb/3T3 cells (Example 32), reported in figure 28, illustrate the inhibitive properties of this compound on proliferation induced by PDGF, representing significant inhibition at concentrations as low as 2 µM. […] 50, are capable of reducing tumor cell growth by blocking oncogene-induced events.
Figure 66 reports that inventive compound no. 45 inhibited PDGF-induced murine BALB/3T3 proliferation. Procedurally, cells were rested overnight in 0.2% serum and stimulated with 25 ng/ml PDGF. Compound no. 45 was added 1 hour prior to stimulation. Cells were pulsed with ^3H-TdR 24 hours later and harvested for scintillation counting 4 hours later.
Figures 66A and 66B are a dose response and cytoxicity curves, respectively, for inhibition of proliferation in Balb/3T3 cells by inventive compound no. 58. In the assay protocol, cells were starved overnight in 0.5% serum containing medium, followed by stimulation with 20 ng/ml PDGF for 24 hours. The cells were labeled with ^3H-TdR for 4 hours and harvested and counted by scintillation. Figure 66B illustrates that inventive compound no.
Figure 68 illustrates an effect of the delayed addition of inventive compound no. 58 to Balb/3T3 proliferation in response to PDGF-BB. Cells were stimulated with PDGF (20 ng/ml) and inventive compound no. 58 added either simultaneous with PDGF (0) or at various times after addition of PDGF, up to 6 hours later. At 24 hours, the cells were pulsed with ^3H-TdR and counted by scintillation four hours later. […] 58 was added as late as 20 hours after PDGF.
Figure 69 illustrates that inventive compound no. […] In the assay protocol, cells were serum starved for 24 hours before adding either 20 ng/ml PDGF or 10% serum. The cells were pulsed with ^3HTdR 24 hours later. Inventive compound no.

[1] = tested on: murine thymocyte proliferation; test: Thymocyte proliferation co-stimulated by ConA and IL-2 (tritiated thymidine); format: cell-based, Balb/C mice; details: Mus musculus, Thymocyte, 96 h; ConA and IL-2 (15 U/ml), 4 days
Description: (§1) ConA, used to activate CD3, induces T-cell proliferation and differentiation. Thymuses, obtained from normal, female Balb/C mice, were dissociated and plated into 96-well plates at a density of 2 x 10^5 cells/well. ConA (0.25 mg/ml) and IL-2 (15 U/ml) were added to the wells. The cells were incubated for 4 days at 37°C. On day 4, the cells were pulsed with tritiated thymidine and incubated for an additional 4 hours. The amount of tritiated thymidine dye incorporated by the harvested cells was determined in a liquid scintillation counter. Drug doses (shown in figs. 1A and 1B) were added two hours prior to ConA and IL-2 activation.
as §1, with “Thymuses,” for “ConA, used to activate CD3, induces T-cell proliferation and differentiation. Thymuses,”, “37 °C.” for “37°C.”, “Doses” for “Drug doses”, “26A, 26B” for “1A”, “26C)” for “1B)”
In another in vitro protocol, thymocyte proliferation was induced by sub-mitogenic doses of Con A (0.25 µg/ml) and IL-2 (20 ng/ml). Cells were stimulated for 96 hours, prior to addition of ^3H-TdR for 4 hours. The cells were harvested and incorporation of ^3H-TdR was determined.
45 on co-stimulated thymocyte proliferation. In an assay procedure, murine thymocytes were stimulated with ConA and IL-2 with 1 µM compound no. 45 added either 1 hour prior to IL-2 (-1), simultaneous with IL-2 (0) or at various times following IL-2 addition (1-92 hour). At 92 hours the thymocytes were pulsed with ^3H-TdR, harvested and counted by scintillation 4 hours later.

[2] = tested on: murine cytotoxic T-cell line, CT6; test: Cytokine-induced proliferation of the cytotoxic T-cell line CT6 / CT-6.1; format: cell-based; details: added one hour prior to IL-2, thymidine at 48 hours
Description: Another assay in this example was used to determine inhibitive activity of the inventive compounds on direct IL-2-induced proliferation in a murine cytotoxic T-cell line, CT6. The CT6 cell line is an IL-2-dependent cell line. IL-2 was removed from the medium for 24 hours prior to stimulation. […] 49, 50, 45, 43 or 41 were added at various concentrations. The cells were stimulated with IL-2 and amount of tritiated thymidine dye incorporated was measured 48 hours later.
In another related assay, inhibitory effects on CT6 cell proliferation is examined. CT6 cells are a murine IL-2 dependent, cytotoxic T cell line that proliferate in response to murine IL-2 (15 U/ml).
CT-6.1 cells were starved overnight and stimulated with IL-2 (20 ng/ml). Twenty hours later, cells were labeled for 4 hours with ^3H-TdR and counted by liquid scintillation.
CT6.1 cells were cultured with IL-2 with or without the addition of inventive compound no. 45 (2 µM) and viable cells counted for up to 8 days. On day 4, two cultures previously incubated with compound no. 45, were washed and recultured with fresh IL-2 with or without compound no. 45 (2 µM).
Procedurally, CT-6.1 cells were starved overnight and stimulated with either IL-2 (20 ng/ml), IL-4 (50 ng/ml) or IL-7 (25 ng/ml). ^3H-TdR was added at 20 hours, cells were harvested 4 hours later, and the incorporation of ^3H-TdR was determined.

Human stromal cells = test: Stromal cell proliferation in response to PDGF-BB; format: cell-based; details: 50 ng/ml PDGF-BB
Description: This assay is useful for predicting therapeutic activity for preventing or treating restenosis, atherosclerosis and coronary artery disease. Human stromal cells were starved in serum-free media for one day and then stimulated with 50 ng/ml PDGF-BB. Inventive compounds, at various concentrations, were added one hour prior to PDGF stimulation. PDGF and tritiated thymidine were added and the cells allowed to incubate for one day, following addition of the PDGF and thymidine. 24 Hours later, the cells were harvested and counted by liquid scintillation counting. Results for compounds nos. Background counts (i.e., starved cells) were approximately 1% of control levels. […] 30, 28, 29, 32 and 31, respectively.

CMV promoter activity = test: microbe, parasite or virus in culture; format: cell-based; details: transformed (adenovirus) cells
Source text: This example illustrates data of proliferative activity of various inventive compounds for inducing CMV promoter activity. The CMV promoter assay measures gene transcription and translation activity wherein any active compounds will have cytotoxic activity for inhibiting cellular protein synthesis in transformed (adenovirus) cells. Compound no. […]

[3] = tested on: proliferative PMBC response to allogeneic stimulation; test: Two-way mixed lymphocyte reaction; format: cell-based; details: Lymphocyte; figs. 2A-2C
Source text: This example illustrates therapeutic potential for various autoimmune and inflammatory diseases of the inventive compounds by comparing potency (inhibitive activity) with cytotoxicity data obtained using the following indicative assay procedures. In a mixed lymphocyte reaction assay of compounds nos. […] Compounds nos. […] 2A and 2B. Both compounds nos. […] 2C.
Compound no. […] Compound no.

mast cell degranulation = test: Serotonin release assay for inhibition of mast cell degranulation; format: cell-based; details: Concentration 50 µM
Source text: This assay provides an in vitro model for an allergy and asthma therapeutic product. […]

CCCCCCCCNCC(O)CCCCCCCCC(=O)O (centres unmarked) [compound 78, 11-Octylamino-10-hydroxyundecanoic acid]
inhibition of PDGF-induced proliferation (Balb/3T3 cells): inhibit Balb/3T3 proliferation
IC50 [1]: 12.4 µM

CCCCCCCCNCC(O)CCCCCCCCCO (centres unmarked) [compound no. 7, 1-Octylamino-2,11-undecadiol]
inhibition of PDGF-induced proliferation (Balb/3T3 cells): inhibit Balb/3T3 proliferation

CCCCCCCCNCC(O)CCCCCCCCC(=O)N(C)C (centres unmarked) [compound 80, 11-Octylamino-10-hydroxyundecanoic acid N,N-dimethyl amide]
IC50 [1]: 3.8 µM

CCCCCCCCCCNCC(O)CCCCCCCn1c(=O)c2c(ncn2C)n(C)c1=O (centres unmarked) [compound 41, 1-(9-Decylamino-8-hydroxynonyl)-3,7-dimethylxanthine]
inhibition of direct IL-2-induced proliferation [2]: inhibited direct IL-2-induced CT6 proliferation

Cn1cnc2c1c(=O)n(CCCCC(O)CNCCCCCCO)c(=O)n2C (centres unmarked) [compound no. 32, 1-(5-hydroxy-6-(N-(6-hydroxy)hexyl)aminohexyl)-3,7-dimethylxanthine]
IC50 (Human stromal cells): > 50 µM
IC50 (CMV promoter activity): > 100 µM

CCCCCCCCNCC(O)CCCCCCCCC(=O)NC (centres unmarked) [compound 79, 11-Octylamino-10-hydroxyundecanoic acid N-methyl amide]
IC50 [1]: 10.6 µM

Cn1cnc2c1c(=O)n(CCCCC(O)CNCC1CCCCC1)c(=O)n2C (centres unmarked) [compound no. 31, 1-(5-hydroxy-6-(N-cyclohexylmethyl)aminohexyl)-3,7-dimethylxanthine]
IC50 (Human stromal cells): > 50 µM
IC50 (CMV promoter activity): > 100 µM

CCCNCC(O)CCCCn1c(=O)c(C)cn(C)c1=O (centres unmarked) [compound no. 26, 3-(6-Propylamino-5-hydroxyhexyl)-1-methylthymine]
IC50 [3]: > 250 µM
IC50 (CMV promoter activity): > 500 µM

Cn1cnc2c1c(=O)n(CCCCC(O)CNCCCCc1ccccc1)c(=O)n2C (centres unmarked) [compound no. 29, 1-(5-hydroxy-6-(N-(4-phenyl)butyl)aminohexyl)-3,7-dimethylxanthine]
IC50 (Human stromal cells): 40 µM
IC50 (CMV promoter activity): > 100 µM

CCCCCCCCNCC(O)CCCCCCCCCN(C)C(C)=O (centres unmarked) [compound no. 77]
inhibition of PDGF-induced proliferation (Balb/3T3 cells): inhibit Balb/3T3 proliferation

CCCNCC(O)CCCCNC(=O)CCCC(=O)NCCC (centres unmarked) [compound no. 5, N^2-(5-hydroxy-6-(N^3-propyl)aminohexyl)-(N^1-propyl)glutaric acid]
IC50 [3]: > 250 µM
IC50 (CMV promoter activity): > 500 µM

CCCCCCCCCCCCCCNCC(O)CCCCCCCn1c(=O)c2c(ncn2C)n(C)c1=O (centres unmarked) [compound 43, 1-(9-Tetradecylamino-8-hydroxynonyl)-3,7-dimethylxanthine]
inhibition of direct IL-2-induced proliferation [2]: inhibited direct IL-2-induced CT6 proliferation

CCCNCC(O)CCCCn1c(=O)ccn(C)c1=O (centres unmarked) [compound no. 19, 3-(5-hydroxy-6-(N-propyl)aminohexyl)-1-methyluracil]
% Inhibition (mast cell degranulation): inactive
IC50 (CMV promoter activity): > 500 µM
